Laboratory results taken from PMC10764104, “Discovery of Molecular Glue Degraders via Isogenic Morphological Profiling” (ACS Chemical Biology, 2023).

Columns and labels:
[1] = target: T1, recombinant DDB1-CRBN (Homo sapiens, UniProt Q96SW2); test: Fluorescence polarization-based competition assay for CRBN binding; settings: 200 nM CRBN-DDB1, 20 nM pomalidomide-fluorescein tracer 16, triplicates; read-out: FP_CRBN_binding: CRBN binding affinity, EC50
T1 construct: His; made in house; host or cells: High Five insect cells (baculovirus made and propagated in SF9 cells)
Procedure: Prior to screening the compound library in the isogenic CPA, we assessed their CRBN binding affinities using a fluorescence-polarization-based competition assay with recombinant DDB1-CRBN and the fluorescent tracer 16 (Figure S2). […] We also assessed the cytotoxicity of the CRBN binders in RKO wild-type (WT) cells to determine the appropriate treatment concentration. […]
Fluorescence Polarization‐based competition assay
Fluorescence Polarization assays were performed in 384‐well, Low Volume, Black, Round Bottom, Polystyrene Nonbinding surface Microplates (Corning, #4514). The test compounds were incubated with 200 nM CRBN‐DDB1 and 20 nM Pomalidomide‐fluorescein tracer 16 in 50 mM Tris‐HCl pH 7.5, 200 mM NaCl, 1 mM DTT, 0.02% Triton X‐ 100, and 0.1 µg/µL Bovine Serum Albumin (Sigma Aldrich, #A7030) in a total volume of 25 µL. Fluorescence polarization values were determined with a PerkinElmer Envision reader with FITC FP dual mirror and FITC FP 480 excitation filter and FITC FP 535 emission filters. Fluorescence polarization values of a 10x serial dilution (10 nM to 100 µM) of the test compounds were determined in triplicates. EC50 values were calculated with GraphPad Prism software (version 10.0.2) with a non‐linear fit function (4PL sigmoidal curve fit) adjusting the bottom constrain to the FP value of free tracer. […]

[2] = target: T2, GSPT2 (Homo sapiens, UniProt Q8IYD1+Q96SW2); test: Western blot analysis of GSPT1 and GSPT2 degradation in RKO WT or CRBN KO cells; format: cell-based; settings: RKO WT or RKO CRBN KO, 10 µM, 16 h
T2 construct: endogenous in cells; host or cells: RKO WT or RKO CRBN KO
Procedure: (A) Structure of FL2-14 comprising fluorosulfate scaffold FL2 (black) and tail group modification 14 (blue). (B) DMSO-normalized quantitative proteomics after 16 h of treatment with FL2-14 (10 μM) in RKO WT (n = 2). […] (C) Structural alignment of AlphaFold models of GSPT1 (AF-P15170-F1-model_v4 in gray) and GSPT2 (AF-Q8IYD1-F1-model_v4 in blue). (D) Validation of GSPT2 degradation by FL2-14. […] (E) Dose–response of FL2-14 in RKO and HEK293T cells. Cells were treated with the FL2-14 (0 to 10 μM) for 16 h. (F) Degradation of GSPT2^WT or GSPT2^G566N. […]
Analysis of targeted protein degradation of GSPT1 and GSPT2 via western blot For degradation assays 800 000 RKO WT or CRBN KO cells were seeded 1 day prior to the treatment in 6 well plates.
Then, cells were treated with 10 µM of the compounds for 16 hours if not otherwise stated. Cells were harvested, lysed for 30 min at 37°C in lysis buffer (1x PBS, 1% SDS, 2 mM MgCl2, 1x Halt Protease inhibitor cocktail, 50 Units Benzonase) and cleared for 30 min at 18 000 x g at 4°C. Protein concentration was determined with the Pierce 660 nm Protein Assay using the Ionic Detergent Compatibility Reagent (Thermo Scientific). 10 µg total proteome were subjected to western blot analysis by adding 4x Bolt™ LDS Sample Buffer (Thermo Scientific). Samples were boiled at 95°C for 5 min and subjected to gel electrophoresis with Bolt™ 4‐12% Bis‐Tris Plus Gels (Thermo Scientific) with Bolt™ MES SDS Running Buffer (Thermo Scientific). Membranes were blocked with 5% fat‐free milk in TBS‐T (20 mM Tris, 150 mM NaCl, 0.1% Tween, pH 7.6) for 1 h at room temperature and washed subsequently 3x 5 min with TBS‐
T. Afterwards, they were incubated for 1 h at room temperature with either GSPT1 antibody (Abcam ab49878, rabbit, […]
rabbit, 1:10 000), CRBN (Cell Signaling Technologies, CST71810S, rabbit, 1:1000), or GAPDH (SantaCruz sc‐47724, mouse, 1:1 000). Followed by washing 3x 5 min with TBS‐T and incubation for 1 h at room temperature with either Goat ANTI‐RABBIT IgG StarBright™ Blue 700 (Bio‐Rad, #12004162, 1:10 000) or Goat anti‐Mouse IgG (H+L) Cross‐ Adsorbed Secondary Antibody, DyLight™ 800 (Bio‐Rad, STAR117D800GA, 1:10 000) fluorophore‐conjugated

| SMILES | EC50 [1] [nM] | GSPT1/2 degradation by CRBN binders with tail group modification 14 [2] |
| --- | --- | --- |
| CN(Cc1ncc(C2CC2)o1)S(=O)(=O)Oc1cccc(Nc2ccc3c(c2)C(=O)N(C2CCC(=O)NC2=O)C3=O)c1 (centres unmarked) [FL1-14] | 395 | weak degradation of GSPT2 |
| CC1(C)CN(S(=O)(=O)Oc2ccc(Nc3cccc4c3C(=O)N(C3CCC(=O)NC3=O)C4=O)cc2)CC2(CCOC2)O1 (centres unmarked) [FL4-8] | 1960 | – |
| O=C1CCC(N2C(=O)c3cccc(Nc4ccc(OS(=O)(=O)N5CC6(CNC(=O)N6)C5)cc4)c3C2=O)C(=O)N1 (centres unmarked) [FL4-9] | 445 | – |
| O=C1CCC(N2C(=O)c3cccc(Nc4ccc(OS(=O)(=O)N5C[C@@H](F)[C@H](F)C5)cc4)c3C2=O)C(=O)N1 (some centres unmarked) [FL4-10] | 830 | – |
| CN(Cc1ncnn1C)S(=O)(=O)Oc1ccc(Nc2cccc3c2C(=O)N(C2CCC(=O)NC2=O)C3=O)cc1 (centres unmarked) [FL4-11] | 538 | – |
| O=C1CCC(N2C(=O)c3cccc(Nc4ccc(OS(=O)(=O)N5CCC(c6ccco6)C5)cc4)c3C2=O)C(=O)N1 (centres unmarked) [FL4-12] | 4560 | – |
| Cc1cn2c(n1)CN(S(=O)(=O)Oc1ccc(Nc3cccc4c3C(=O)N(C3CCC(=O)NC3=O)C4=O)cc1)CC2 (centres unmarked) [FL4-13] | 463 | – |
| CN(Cc1ncc(C2CC2)o1)S(=O)(=O)Oc1ccc(Nc2cccc3c2C(=O)N(C2CCC(=O)NC2=O)C3=O)cc1 (centres unmarked) [FL4-14] | 996 | – |
| CN(Cc1ccc2[nH]nnc2c1)S(=O)(=O)Oc1ccc(Nc2cccc3c2C(=O)N(C2CCC(=O)NC2=O)C3=O)cc1 (centres unmarked) [FL4-15] | 2130 | – |
| O=C1CCC(N2C(=O)c3cccc(Nc4ccc(OS(=O)(=O)N5CCC(c6ccncc6)CC5)cc4)c3C2=O)C(=O)N1 (centres unmarked) [FL4-16] | 971 | – |
| CC1c2cc(F)ccc2CCN1S(=O)(=O)Oc1ccc(Nc2cccc3c2C(=O)N(C2CCC(=O)NC2=O)C3=O)cc1 (centres unmarked) [FL4-17] | 983 | – |
| CN(C)c1ncc(CN(C)S(=O)(=O)Oc2ccc(Nc3cccc4c3C(=O)N(C3CCC(=O)NC3=O)C4=O)cc2)cn1 (centres unmarked) [FL4-18] | 1610 | – |
| CC1c2cccn2CCN1S(=O)(=O)Oc1ccc(Nc2cccc3c2C(=O)N(C2CCC(=O)NC2=O)C3=O)cc1 (centres unmarked) [FL4-19] | 687 | – |
| CN(Cc1ccc2c(c1)OCO2)S(=O)(=O)Oc1ccc(Nc2cccc3c2C(=O)N(C2CCC(=O)NC2=O)C3=O)cc1 (centres unmarked) [FL4-20] | 1720 | – |
| CN(C1CC1)S(=O)(=O)Oc1ccc(Nc2cccc3c2C(=O)N(C2CCC(=O)NC2=O)C3=O)cc1 (centres unmarked) [FL4-21] | 1080 | – |
| C[C@@H](O)CN(C)S(=O)(=O)Oc1ccc(C2CCC(=O)NC2=O)cc1 (some centres unmarked) [FL5-1] | 914 | – |
| O=C1CCC(c2ccc(OS(=O)(=O)N3CC(CCO)C3)cc2)C(=O)N1 (centres unmarked) [FL5-2] | 1060 | – |
| CC(C)(O)C1CCN(S(=O)(=O)Oc2ccc(C3CCC(=O)NC3=O)cc2)C1 (centres unmarked) [FL5-4] | 948 | – |
| O=C1CCC(c2ccc(OS(=O)(=O)N3CCOCC3)cc2)C(=O)N1 (centres unmarked) [FL5-5] | 829 | – |
| C[C@@H]1C[C@H](C)CN(S(=O)(=O)Oc2ccc(C3CCC(=O)NC3=O)cc2)C1 (some centres unmarked) [FL5-6] | 4690 | – |
| CC1(C)CN(S(=O)(=O)Oc2ccc(C3CCC(=O)NC3=O)cc2)CCS1(=O)=O (centres unmarked) [FL5-7] | 864 | – |
| CC1(C)CN(S(=O)(=O)Oc2ccc(C3CCC(=O)NC3=O)cc2)CC2(CCOC2)O1 (centres unmarked) [FL5-8] | 1340 | – |
| O=C1CCC(c2ccc(OS(=O)(=O)N3CC4(CNC(=O)N4)C3)cc2)C(=O)N1 (centres unmarked) [FL5-9] | 1050 | – |
| O=C1CCC(c2ccc(OS(=O)(=O)N3C[C@@H](F)[C@H](F)C3)cc2)C(=O)N1 (some centres unmarked) [FL5-10] | 893 | – |
| CN(Cc1ncnn1C)S(=O)(=O)Oc1ccc(C2CCC(=O)NC2=O)cc1 (centres unmarked) [FL5-11] | 1270 | – |
| O=C1CCC(c2ccc(OS(=O)(=O)N3CCC(c4ccco4)C3)cc2)C(=O)N1 (centres unmarked) [FL5-12] | 705 | – |
| Cc1cn2c(n1)CN(S(=O)(=O)Oc1ccc(C3CCC(=O)NC3=O)cc1)CC2 (centres unmarked) [FL5-13] | 771 | – |
| CN(Cc1ncc(C2CC2)o1)S(=O)(=O)Oc1ccc(C2CCC(=O)NC2=O)cc1 (centres unmarked) [FL5-14] | 600 | – |
